Paper PMC8840173 (Molecules, 2022)
≈ marks a conversion by molar mass, not a printed value. Where two headings read alike, the source gives them in different places.

Assays:
[1] = parameters: method as in earlier work; settings: antioxidant activity; cited from earlier work
[2] = target: butyryl cholinesterase; parameters: method as in PMID 23046385; settings: read-out: inhibitory activity against butyryl cholinesterase IC50; cited from earlier work
[3] = tested on: lung cancer cell line A549; settings: cited from earlier work
[4] = physchem; format: physicochemical; settings: for light transmittance of the diluted solution: 1 h, 1.82 mM
Method: All the metabolites obtained during this study were more polar than their parent compound (−)-α-bisabolol (1) and proposed to have higher aqueous solubility. In order to confirm the improvement in solubility, a modified kinetic solubility test was carried out using the stock solutions of compounds 1–12 (20 mM in dimethyl sulfoxide). […] This was confirmed by measuring the light transmittance of the diluted solutions.
The solubility of compounds 1–12 was evaluated by the modified kinetic solubility assay. Compounds 1–12 were dissolved in dimethyl sulfoxide (DMSO) to yield 20 mM stock solutions, then 10 μL of the compound stock solution was diluted with 100 μL water. After all the solutions were prepared, the vials were placed under room temperature and allowed to mix for 1 h. After this, the light transmittance was measured at a scan width of 5 nm over the range of 390 to 650 nm using a SpectraMax 190 Microplate reader (Molecular Devices, Sunnyvale, CA, USA). After centrifugation, the supernatant was analyzed by HPLC under 200 nm using a Zorbax SB-CN (250 × 10 mm) column with 60% methanol as mobile phase at a flow rate of 2 mL/min.

[5] = tested on: promastigotes; parameters: method as in PMID 25448354, PMID 27616730; settings: in vitro, cited from earlier work
[6] = tested on: LPS-induced production of NO and PGE2; parameters: method as in PMID 21771629; settings: dose-dependent; cited from earlier work
[7] = parameters: method as in PMID 24894548; settings: cited from earlier work
[8] = tested on: healthy and infected hamsters; settings: cited from earlier work

For `CC1=CC[C@@H]([C@]2(C)CC[C@H](O)C(C)(C)O2)CC1` [α-Bisabolol oxide A], the “IC50 for DPPH radical scavenging ability” value [1] is given as 1500 µg/mL.

In the case of `C=C1CC[C@H]2O[C@]2(C)CC[C@@H]2[C@@H]1CC2(C)C` [caryophyllene oxide], the IC50 [2] is given as 208 µM.

For `C=C(CO)C1CCC2=CC(=O)CC(C)C2(C)C1` (centres unmarked) [13-hydroxynootkatone], the “cytotoxic activity IC50” value [3] is given as 36 µg/mL.

With `CC1=CC[C@@](O)([C@]2(C)CC[C@@H](C(C)(C)O)O2)CC1` [Compound 5, (1R,7S,10S)-1-hydroxybisabolol oxide B] the “light transmittance of the diluted solution” value (shortened to “light transmittance”) [4] was 90%.

With `CC(C)=CCC[C@](C)(O)[C@@H]1CC=C(C)CC1` [Compound 1, (−)-α-Bisabolol] the “appearance after dilution (turbidity / precipitates)” value ([4]; 10 μL of 20 mM DMSO stock diluted with 100 μL water) was “White turbidity”, the “light transmittance” value [4] was “less than 50%” and the solubility at 1 h ([4]; aqueous with cosolvent or surfactant or cyclodextrin, kinetic from dmso stock) was 260 µM (≈ 57.8 µg/mL). For the same compound, the “antileishmanial activity IC50” value ([5]; 24 h) was 8.07 µg/mL, the “antileishmanial activity IC50” value ([5]; 48 h) was 4.26 µg/mL and the “IC50 for DPPH radical scavenging ability” value [1] was 43880 µg/mL. For the same compound, the “effect on LPS-induced production of NO and PGE2” value [6] was “significantly reduce”, the “effect on TPA-induced ear thickness and histopathological damage in the ear tissue” value [7] was “significantly inhibited” and the “toxicity or side effects after administration” value [8] was “did not lead to the appearance of toxicity or side effects”.

For `CC(C)=CCC[C@](C)(O)[C@@H]1CC=C(C)[C@H](O)C1` [Compound 2, (1R,5R,7S)-5-hydroxy-α-bisabolol], the “light transmittance” value [4] was 90%.

In the case of 14-hydroxymethyl caryophyllene oxide, the IC50 [2] is given as 10.9 µM.

In the case of `CC(C)=CCC[C@](C)(O)[C@H]1CC[C@](C)(O)[C@H](O)C1` [Compound 8, (1S,3R,4S,7S)-3,4-dihydroxy-α-bisabolol], the “light transmittance” value [4] is reported as 90%.

In the case of `CC(C)=CCC[C@](C)(O)[C@@H]1CC=C(CO)CC1` [Compound 11, 15-hydroxy-α-bisabolol], the “light transmittance” value [4] is reported as 90%.
